Assay results as given in patent US20090226398A1, “ANTI-VIRAL COMPOUNDS, COMPOSITIONS, AND METHODS OF USE” (Genelabs Technologies, Inc., priority 2008, published 2009).

Each molecule was assayed on HCV replication (assay: Replicon Assay (Huh-lucubineo-ET cells, luciferase readout)). Details: Hepatitis C virus; ET (Huh-lucubineo-ET) HCV replicon cell line; luciferase activity 48-72 hours after compound addition; 6 dilutions.
Assay type: cell-based
In short: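 Huh-lucubineo-ET cells stably carrying a firefly luciferase-ubiquitin-neo/NS3-5B ET replicon (adaptive mutations E1202G, T1280I, K1846T) were plated 24 h before compound, then treated at 5 or 50 μM or six 3-fold dilutions. Luciferase read 48-72 h later; % inhibition vs no-compound control, EC50/TC50 from Hill-equation fit.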

For Fc1cccc(-c2nc3cnn(Cc4ccc5ccccc5c4)cc-3n2)c1F [Compound 278, 2-(2,3-Difluoro-phenyl)-5-naphthalen-2-ylmethyl-5H-imidazo[4,5-d]pyridazine], which EC50 is on record?
Its EC50 is no less than 50 µM.

Fc1cccc(-c2nc3cnn(Cc4cccc(Oc5ccccc5)c4)cc-3n2)c1F [Compound 279, 2-(2,3-Difluoro-phenyl)-5-(3-phenoxy-benzyl)-5H-imidazo[4,5-d]pyridazine] was tested. Which EC50 did it give?
Its EC50 is 20 µM.

Which EC50 does the source give for Fc1cccc(-c2nc3cnn(Cc4ccc(OCc5ccccc5)cc4)cc-3n2)c1F [Compound 280, 5-(4-Benzyloxy-benzyl)-2-(2,3-difluoro-phenyl)-5H-imidazo[4,5-d]pyridazine] here?
The EC50 was no less than 50 µM.

With Fc1cccc(-c2nc3cnn(Cc4ccc(/C=C/c5ccccc5)cc4)cc-3n2)c1F [Compound 281, 2-(2,3-Difluoro-phenyl)-5-(4-styrylbenzyl)-5H-imidazo[4,5-d]pyridazine] as the molecule, how does the EC50 read?
The EC50 was 1.8 µM.

For Fc1cccc(-c2nc3cnn(Cc4ccc(-c5ccccc5)cc4)cc-3n2)c1F [Compound 282, 5-Biphenyl-4-ylmethyl-2-(2,3-difluoro-phenyl)-5H-imidazo[4,5-d]pyridazine], which EC50 is on record?
The EC50 was 0.69 µM.

With Fc1cccc(-c2nc3cnn(Cc4ccc5occc5c4)cc-3n2)c1F [Compound 283, 5-Benzofuran-5-ylmethyl-2-(2,3-difluoro-phenyl)-5H-imidazo[4,5-d]pyridazine] as the molecule, how does the EC50 read?
The EC50 was no less than 50 µM.

Which EC50 does the source give for Fc1cccc(-c2nc3cnn(Cc4ccc5sccc5c4)cc-3n2)c1F [Compound 284, 5-Benzothiophen-5-ylmethyl-2-(2,3-difluoro-phenyl)-5H-imidazo[4,5-d]pyridazine] here?
Its EC50 is no less than 50 µM.

O=[N+]([O-])c1ccc(-c2ccc(Cn3cc4nc(-c5cccc(F)c5F)nc-4cn3)cn2)c(C(F)(F)F)c1 [Compound 285, 2-(2,3-Difluoro-phenyl)-5-[6-(4-nitro-2-trifluoromethyl-phenyl)-pyridin-3-ylmethyl]-5H-imidazo[4,5-d]pyridazine] was tested. Which EC50 did it give?
The EC50 was 0.284 µM.

O=[N+]([O-])c1cc(C(F)(F)F)ccc1-c1ccc(Cn2cc3nc(-c4cccc(F)c4F)nc-3cn2)cn1 [Compound 286, 2-(2,3-Difluoro-phenyl)-5-[6-(2-nitro-4-trifluoromethyl-phenyl)-pyridin-3-ylmethyl]-5H-imidazo[4,5-d]pyridazine] was tested. Which EC50 did it give?
Its EC50 is 0.059 µM.

With COc1cccc(Cn2cc3nc(-c4cccc(F)c4F)nc-3cn2)c1 [Compound 287, 2-(2,3-Difluoro-phenyl)-5-(3-methoxy-benzyl)-5H-imidazo[4,5-d]pyridazine] as the molecule, how does the EC50 read?
The EC50 was no less than 50 µM.

With COC(=O)c1cc(Cn2cc3nc(-c4cccc(F)c4F)nc-3cn2)ccc1-c1ccc(OC)cc1C(F)(F)F [Compound 288, 4-[2-(2,3-Difluoro-phenyl)-imidazo[4,5-d]pyridazin-5-ylmethyl]-4′-methoxy-2′-trifluoromethyl-biphenyl-2-carboxylic acid methyl ester] as the molecule, how does the EC50 read?
Its EC50 is 0.2 µM.

Fc1cccc(-c2nc3cnn(Cc4cccc(C(F)(F)F)c4)cc-3n2)c1F [Compound 289, 2-(2,3-Difluoro-phenyl)-5-(3-trifluoromethyl-benzyl)-5H-imidazo[4,5-d]pyridazine] was tested. Which EC50 did it give?
The EC50 was no less than 50 µM.

For O=[N+]([O-])c1cccc(Cn2cc3nc(-c4cccc(F)c4F)nc-3cn2)c1 [Compound 290, 2-(2,3-Difluoro-phenyl)-5-(3-nitro-benzyl)-5H-imidazo[4,5-d]pyridazine], which EC50 is on record?
The EC50 was no less than 50 µM.

For Fc1cccc(-c2nc3cnn(Cc4cccc(-n5cccn5)c4)cc-3n2)c1F [Compound 291, 2-(2,3-Difluoro-phenyl)-5-(3-pyrazol-1-yl-benzyl)-5H-imidazo[4,5-d]pyridazine], which EC50 is on record?
The EC50 was no less than 50 µM.

For Fc1cccc(-c2nc3cnn(Cc4cccc5ccccc45)cc-3n2)c1F [Compound 292, 2-(2,3-Difluoro-phenyl)-5-naphthalen-1-ylmethyl-5H-imidazo[4,5-d]pyridazine], which EC50 is on record?
The EC50 was no less than 50 µM.

With Fc1cccc(-c2nc3cnn(Cc4ccc(-c5cncnc5)cc4)cc-3n2)c1F [Compound 293, 2-(2,3-Difluoro-phenyl)-5-(4-pyrimidin-5-yl-benzyl)-5H-imidazo[4,5-d]pyridazine] as the molecule, how does the EC50 read?
Its EC50 is no less than 50 µM.

COc1ccc(-c2ccc(Cn3cc4nc(-c5cccc(F)c5F)nc-4cn3)c(OC)c2)c(C(F)(F)F)c1 [Compound 294, 2-(2,3-Difluoro-phenyl)-5-(3,4′-dimethoxy-2′-trifluoromethyl-biphenyl-4-ylmethyl)-5H-imidazo[4,5-d]pyridazine] was tested. Which EC50 did it give?
The EC50 was 0.473 µM.

CCCOc1ccc(-c2cnc(Cn3cc4nc(-c5cccc(F)c5F)nc-4cn3)cn2)c(C(F)(F)F)c1 [Compound 295, 2-(2,3-Difluoro-phenyl)-5-[5-(4-propoxy-2-trifluoromethyl-phenyl)-pyrazin-2-ylmethyl]-5H-imidazo[4,5-d]pyridazine] was tested. Which EC50 did it give?
Its EC50 is 0.026 µM.

For CCCOc1ccc(-c2ccc(Cn3cc4nc(-c5cccc(F)c5F)nc-4cn3)nc2)c(C(F)(F)F)c1 [Compound 296, 2-(2,3-Difluoro-phenyl)-5-[5-(4-propoxy-2-trifluoromethyl-phenyl)-pyridin-2-ylmethyl]-5H-imidazo[4,5-d]pyridazine], which EC50 is on record?
The EC50 was 0.023 µM.

Which EC50 does the source give for Fc1ccc(COc2ccc(Cn3cc4nc(-c5cccc(F)c5F)nc-4cn3)cc2)cc1 [Compound 297, 2-(2,3-Difluoro-phenyl)-5-[4-(4-fluoro-benzyloxy)-benzyl]-5H-imidazo[4,5-d]pyridazine] here?
The EC50 was 5.74 µM.

With Fc1cccc(-c2nc3cnn(Cc4ccc(-c5ccc(Br)c(C(F)(F)F)c5)nc4)cc-3n2)c1F [Compound 298, 5-[6-(4-Bromo-3-trifluoromethyl-phenyl)-pyridin-3-ylmethyl]-2-(2,3-difluorophenyl)-5H-imidazo[4,5-d]pyridazine] as the molecule, how does the EC50 read?
The EC50 was no less than 50 µM.

Fc1cccc(-c2nc3cnn(Cc4ccc(-c5ccccn5)cc4)cc-3n2)c1F [Compound 299, 2-(2,3-Difluoro-phenyl)-5-(4-pyridin-2-yl-benzyl)-5H-imidazo[4,5-d]pyridazine] was tested. Which EC50 did it give?
The EC50 was no less than 50 µM.

With Fc1cccc(-c2nc3cnn(Cc4cccc(OC(F)(F)F)c4)cc-3n2)c1F [Compound 300, 2-(2,3-Difluoro-phenyl)-5-(3-trifluoromethoxy-benzyl)-5H-imidazo[4,5-d]pyridazine] as the molecule, how does the EC50 read?
The EC50 was no less than 50 µM.

Which EC50 does the source give for Fc1cccc(-c2nc3cnn(Cc4cccc(-c5ccncc5)c4)cc-3n2)c1F [Compound 301, 2-(2,3-Difluoro-phenyl)-5-(3-pyridin-4-yl-benzyl)-5H-imidazo[4,5-d]pyridazine] here?
Its EC50 is 35 µM.

How did the EC50 turn out when Fc1cccc(-c2nc3cnn(Cc4ccc5ncccc5c4)cc-3n2)c1F [Compound 302, 6-[2-(2,3-Difluoro-phenyl)-imidazo[4,5-d]pyridazin-5-ylmethyl]-quinoline] was run?
The EC50 was no less than 50 µM.

How did the EC50 turn out when Fc1cccc(-c2nc3cnn(Cc4ccc(N5CCOCC5)cc4)cc-3n2)c1F [Compound 303, 2-(2,3-Difluoro-phenyl)-5-(4-morpholin-4-yl-benzyl)-5H-imidazo[4,5-d]pyridazine] was run?
The EC50 was 8.53 µM.

How did the EC50 turn out when Fc1cccc(-c2nc3cnn(Cc4ccc(N5CCCCC5)cc4)cc-3n2)c1F [Compound 304, 2-(2,3-Difluoro-phenyl)-5-(4-piperidin-1-yl-benzyl)-5H-imidazo[4,5-d]pyridazine] was run?
The EC50 was 3.87 µM.

For CC(c1ccc(-c2ccc(C(F)(F)F)cc2C(F)(F)F)cn1)n1cc2nc(-c3cccc(F)c3F)nc-2cn1 (stereo not shown) [Compound 305, 5-{1-[5-(2,4-Bis-trifluoromethyl-phenyl)-pyridin-2-yl]-ethyl}-2-(2,3-difluoro-phenyl)-5H-imidazo[4,5-d]pyridazine], which EC50 is on record?
Its EC50 is 0.278 µM.

How did the EC50 turn out when COc1ccc(-c2cnc(Cn3cc4nc(-c5cccc(F)c5F)nc-4cn3)cn2)c(C(F)(F)F)c1 [Compound 306, 2-(2,3-Difluoro-phenyl)-5-[5-(4-methoxy-2-trifluoromethyl-phenyl)-pyrazin-2-ylmethyl]-5H-imidazo[4,5-d]pyridazine] was run?
The EC50 was 0.023 µM.

Fc1cccc(-c2nc3cnn(Cc4ccc(Cl)nn4)cc-3n2)c1F [Compound 307, 5-(6-Chloro-pyridazin-3-ylmethyl)-2-(2,3-difluoro-phenyl)-5H-imidazo[4,5-d]pyridazine] was tested. Which EC50 did it give?
The EC50 was no less than 50 µM.

With Fc1cccc(-c2nc3cnn(Cc4ccc(-n5cccn5)cc4)cc-3n2)c1F [Compound 308, 2-(2,3-Difluoro-phenyl)-5-(4-pyrazol-1-yl-benzyl)-5H-imidazo[4,5-d]pyridazine] as the molecule, how does the EC50 read?
Its EC50 is no less than 50 µM.

Which EC50 does the source give for Fc1cc(Cn2cc3nc(-c4cccc(F)c4F)nc-3cn2)ccc1Br [Compound 309, 5-(4-Bromo-3-fluoro-benzyl)-2-(2,3-difluoro-phenyl)-5H-imidazo[4,5-d]pyridazine] here?
Its EC50 is 61 µM.

Which EC50 does the source give for COc1ccc(-c2ccc(Cn3cc4nc(-c5cccc(F)c5F)nc-4cn3)nc2[N+](=O)[O-])c(C(F)(F)F)c1 [Compound 310, 2-(2,3-Difluoro-phenyl)-5-[5-(4-methoxy-2-trifluoromethyl-phenyl)-6-nitro-pyridin-2-ylmethyl]-5H-imidazo[4,5-d]pyridazine] here?
The EC50 was 0.762 µM.

How did the EC50 turn out when O=[N+]([O-])c1cc(Cn2cc3nc(-c4cccc(F)c4F)nc-3cn2)ccc1Br [Compound 311, 5-(4-Bromo-3-nitro-benzyl)-2-(2,3-difluoro-phenyl)-5H-imidazo[4,5-d]pyridazine] was run?
The EC50 was 6.54 µM.

With COC(=O)c1cc(Br)ccc1Cn1cc2nc(-c3cccc(F)c3F)nc-2cn1 [Compound 312, 5-Bromo-2-[2-(2,3-difluoro-phenyl)-imidazo[4,5-d]pyridazin-5-ylmethyl]-benzoic acid methyl ester] as the molecule, how does the EC50 read?
Its EC50 is no less than 50 µM.

How did the EC50 turn out when Cc1noc(-c2ccc(Cn3cc4nc(-c5cccc(F)c5F)nc-4cn3)cc2)n1 [Compound 313, 2-(2,3-Difluoro-phenyl)-5-[4-(3-methyl-[1,2,4]oxadiazol-5-yl)-benzyl]-5H-imidazo[4,5-d]pyridazine] was run?
The EC50 was no less than 50 µM.

How did the EC50 turn out when Fc1cccc(-c2nc3cnn(Cc4ccc(Oc5ccccn5)cc4)cc-3n2)c1F [Compound 314, 2-(2,3-Difluoro-phenyl)-5-[4-(pyridin-2-yloxy)-benzyl]-5H-imidazo[4,5-d]pyridazine] was run?
Its EC50 is no less than 50 µM.
